“And” between values parts separate entries of the source, which are not always exact repeats. Identical values can stand only once.
What was measured:
[1] = Fecal excretion and metabolite profile by radiochromatography, dogs; format: in vivo, beagle dogs; settings: single oral 30 mg/kg; for Compounds Detected by Radiochromatography in feces, percent of total peaks, individual dogs: feces 0-24 hours post dose (dog 7 until 48 hours), average of 2 analyses; for Compounds Detected by Radiochromatography in feces, percent of total peaks, Mean ± S.D.: feces 0-24 hours post dose
Method: (§1) For each dog, urine and feces were collected separately, with urine collected on dry ice and feces collected at room temperature. Collections were from 0-8 and 8-24 hours for urine and 0-24 hours for feces. Urine and fecal samples were shipped on dry ice to Wyeth Research, Biotransformation Division (Collegeville, Pa.) for analysis. Fecal samples were homogenized in approximately five volumes (v/w) of water. Aliquots of approximately 0.2 grams of the homogenate were placed into combusto-cones, weighed and allowed to air dry. These samples were then oxidized and radioactivity content determined. The remaining urine samples and fecal homogenates were stored at −70° C. until metabolite analysis. Blood samples and fecal homogenates were oxidized in a Model 307 Tri-Carb sample oxidizer, using Carbosorb® E (6 mL) as trapping agent and PermaFluor® E^+ (10 mL) as scintillant. The background reading (average of control blood or fecal samples) was subtracted from each sample reading. Aliquots of urine and plasma were analyzed directly following the addition of 10 mL of Ultima Gold™ scintillation fluid.
Fecal homogenates collected up to 24 hours post-dose were analyzed for metabolite profiles. Aliquots of approximately 2 grams of fecal homogenate were transferred to a fresh tube, an equal volume of acetonitrile (v/w) was added, and the tube vortexed. Samples were then centrifuged at 14000 rpm in an Eppendorf Model 5415C centrifuge for 10 minutes. The supernatant was transferred to a clean tube. The residue was re-suspended with 1 mL acetonitrile and centrifuged as described above. The resulting supernatant was combined with the original supernatant and analyzed for radioactivity. The supernatants were then concentrated under a stream of nitrogen in a Turbo Vap to remove the acetonitrile. An aliquot of the aqueous residue was analyzed by HPLC for profiling. Selected samples were also analyzed by LC/MS to characterize the radioactive peaks.
(§2) Chromatographic analyses were performed with a Waters Alliance model 2690 HPLC system (Waters Corp., Milford, Mass.). It was equipped with a built-in autosampler and was in-line with a model 2487 tunable UV detector, set to monitor 225 nm, and a FloOne β Model 515 radioactivity flow detector (Perkin Elmer) with a 250 μL LQTR flow cell. The flow rate of Ultima Flow M scintillation fluid was 3 mL/min, providing a mixing ratio of scintillation cocktail to mobile phase of 3:1. Separation of the metabolite peaks was accomplished on a Phenomenex Luna C18(2) column, 250×4.6 mm, 5 micron (Phenomenex, Torrance, Calif.), using a linear gradient of two mobile phases, A and B. Mobile phase A was 10 mM ammonium acetate, pH 5.5, and mobile phase B was acetonitrile. The flow rate was 1 mL/min.

[2] = Metabolites of DVS observed by LC/MS in dog plasma, urine and feces; format: in vivo, beagle dogs; settings: P: plasma, U: urine, F: feces
Method: An Agilent Model 1100 HPLC system (Agilent Technologies, Wilmington, Del.) including an autosampler and diode array UV detector was used for LC/MS analysis. The UV detector was set to monitor 200 to 400 nm. Separations were accomplished on a 5 micron Phenomenex Luna C18(2) column, 150×2 mm (Phenomenex). The column temperature was 25° C. For selected LC/MS analyses, radiochromatograms were acquired using a β-RAM model 3 radioactivity flow detector (IN/US Systems Inc., Tampa, Fla.) equipped with a solid scintillation flow cell.
The mass spectrometers used for metabolite characterization were a Micromass Q-TOF-2 quadrupole time-of-flight hybrid mass spectrometer (Micromass, Inc., Beverly, Mass.) and a Finnigan LCQ Deca ion trap mass spectrometer (ThermoFinnigan, San Jose, Calif.). The mass spectrometer was equipped with an electrospray ionization (ESI) interface and operated in the positive ionization mode.

[3] = Plasma metabolite profile by radiochromatography, rats; format: in vivo, Sprague Dawley rats; settings: single oral 20 mg/kg DVS
Method: Plasma samples collected at 1, 4 and 8 hours post-dose were analyzed for metabolite profiles. Aliquots of 0.5 mL plasma were mixed with an equal volume of acetonitrile, placed on ice for approximately 10 minutes, and then centrifuged at 3500 rpm and 4° C. in a Sorvall Super 21 centrifuge for 10 minutes. The supernatant fluid was transferred to a clean tube. The supernatant was analyzed for radioactivity. The supernatant was concentrated under a stream of nitrogen in a Turbo Vap (Zymark, Hopinkton, Mass.) to remove the acetonitrile. An aliquot of the aqueous residue was analyzed by HPLC for metabolite profiling. Selected samples were also analyzed by LC/MS to characterize the radioactive peaks.
as §2, with “β Model 525 radioactivity flow” for “β Model 515 radioactivity flow”, “fluid was 1 mL/min, providing” for “fluid was 3 mL/min, providing”, “phase of 5:1. Separation of” for “phase of 3:1. Separation of”, “C18(2) column, 150×2.0 mm, 5” for “C18(2) column, 250×4.6 mm, 5”, “acetate, pH 6.0, and mobile” for “acetate, pH 5.5, and mobile”, “rate was 0.2 mL/min.” for “rate was 1 mL/min.”

[4] = Urinary excretion and metabolite profile by radiochromatography, rats; format: in vivo, Sprague Dawley rats; settings: for Compounds Detected by Radiochromatography in urine (Mean ± S.D., n = 3), percent of total peaks: single oral 20 mg/kg
Method: (§3) Urine and feces were collected separately on dry ice from three animals per sex. Collections were from 0-8 and 8-24 hours for male rats and 0-8 hours for female rats. Fecal samples were homogenized in approximately five volumes (v/w) of water. Aliquots of approximately 0.4 grams of the homogenate were placed into combusto-cones, weighed and allowed to air dry. These samples were then oxidized. The remaining urine samples and fecal homogenates were stored at −70° C. until metabolite analysis.
All urine samples were analyzed for metabolite profiles. Aliquots of 0.5 mL urine were centrifuged at 3500 rpm and 4° C. in a Sorvall Super 21 centrifuge for 10 minutes. The supernatant was transferred to a fresh tube and analyzed for radioactivity content and by HPLC for profiling. Selected samples were also analyzed by LC/MS to characterize the radioactive peaks.
as §2, with “β Model 525 radioactivity flow” for “β Model 515 radioactivity flow”, “fluid was 1 mL/min, providing” for “fluid was 3 mL/min, providing”, “phase of 5:1. Separation of” for “phase of 3:1. Separation of”, “C18(2) column, 150×2.0 mm, 5” for “C18(2) column, 250×4.6 mm, 5”, “acetate, pH 6.0, and mobile” for “acetate, pH 5.5, and mobile”, “rate was 0.2 mL/min.” for “rate was 1 mL/min.”

[5] = Metabolites of DVS observed by LC/MS in rat plasma, urine and feces; format: in vivo, Sprague Dawley rats; settings: P: plasma, U: urine, F: feces
Method: An Agilent Model 1100 HPLC system (Agilent Technologies, Wilmington, Del.) including an autosampler and diode array UV detector was used for LC/MS analysis. The UV detector was set to monitor 200 to 400 nm. Separations were accomplished on a 5 micron Phenomenex Luna C18(2) column, 150×2 mm (Phenomenex). The column temperature was 25° C. The mobile phases and gradient program were as follows.
The mass spectrometer used for metabolite characterization was a Micromass Q-TOF-2 quadrupole time-of-flight hybrid mass spectrometer (Micromass, Inc., Beverly, Mass.). The mass spectrometer was equipped with an electrospray ionization (ESI) interface and operated in the positive ionization mode.

[6] = Plasma metabolite profile by radiochromatography, dogs; format: in vivo, beagle dogs; settings: single oral 30 mg/kg DVS
Method: Plasma samples collected at 1 and 4 hours post-dose were analyzed for metabolite profiles. Aliquots of 1 mL plasma were mixed with an equal volume of acetonitrile, placed on ice for at least 10 minutes, and then centrifuged at 14000 rpm in an Eppendorf Model 5415C centrifuge for 10 minutes. The supernatant fluid was transferred to a clean tube. The supernatant was analyzed for radioactivity. The supernatant was concentrated under a stream of nitrogen in a Turbo Vap (Zymark, Hopinkton, Mass.) to remove the acetonitrile. An aliquot of the aqueous residue was analyzed by HPLC for profiling. Selected samples were also analyzed by LC/MS to characterize the radioactive peaks.
Chromatographic analyses were performed with a Waters Alliance model 2690 HPLC system (Waters Corp., Milford, Mass.). It was equipped with a built-in autosampler and was in-line with a model 2487 tunable UV detector, set to monitor 225 nm, and a FloOne β Model 515 radioactivity flow detector (Perkin Elmer) with a 250 μL LQTR flow cell. The flow rate of Ultima Flow M scintillation fluid was 3 mL/min, providing a mixing ratio of scintillation cocktail to mobile phase of 3:1. […]

[7] = Urinary excretion and metabolite profile by radiochromatography, dogs; format: in vivo, beagle dogs; settings: urine 8-24 hours post-dose, single oral 30 mg/kg, mean of 2 analyses, 30 mg/kg
Method: as §1
Urine samples collected between 8 and 24 hours post-dose were analyzed for metabolite profiles. Aliquots of urine were centrifuged at 14000 rpm in an Eppendorf Model 5415C centrifuge for 10 minutes. The supernatant was transferred to a fresh tube and analyzed for radioactivity content and by HPLC for metabolite profiling. Selected samples were also analyzed by LC/MS to characterize the radioactive peaks.
as §2

[8] = Fecal excretion and metabolite profile by radiochromatography, rats; format: in vivo, Sprague Dawley rats; settings: male rats, feces 8-24 hours post-dose, single oral 20 mg/kg, 20 mg/kg
Method: as §3
Fecal homogenates collected from male rats between 8 and 24 hours post-dose were analyzed for metabolite profiles. Aliquots of approximately 1 gram of fecal homogenate were centrifuged at 3500 rpm and 4° C. in a Sorvall Super 21 centrifuge for 10 minutes. The supernatant was transferred to a clean tube. The residue was re-suspended with 1 mL of water:acetonitrile (1:1, v:v) and centrifuged as described above. The resulting supernatant was combined with the original supernatant and the residue re-suspended with 1 mL of acetonitrile. The suspension was centrifuged as described above, and the supernatants were combined and analyzed for radioactivity. The supernatants were then concentrated under a stream of nitrogen in a Turbo Vap to remove the acetonitrile. An aliquot of the aqueous residue was analyzed by HPLC for profiling. Selected samples were also analyzed by LC/MS to characterize the radioactive peaks.
as §2, with “β Model 525 radioactivity flow” for “β Model 515 radioactivity flow”, “fluid was 1 mL/min, providing” for “fluid was 3 mL/min, providing”, “phase of 5:1. Separation of” for “phase of 3:1. Separation of”, “C18(2) column, 150×2.0 mm, 5” for “C18(2) column, 250×4.6 mm, 5”, “acetate, pH 6.0, and mobile” for “acetate, pH 5.5, and mobile”, “rate was 0.2 mL/min.” for “rate was 1 mL/min.”

SMILES	Compounds Detected by Radiochromatography in feces, percent of total peaks, individual dogs [1]	Compounds Detected by Radiochromatography in feces, percent of total peaks, Mean ± S.D. [1]	Matrix (metabolite observed by LC/MS) [2]	Matrix (metabolite observed by LC/MS) [5]	Compounds Detected by Radiochromatography in urine, percent of total peaks, individual dogs [7]	Compounds Detected by Radiochromatography in feces, percent of total peaks, Mean ± S.D. [8]	other results
CN(C)CC(O)(c1ccc(O)cc1)C1(O)CCCCC1 (centres unmarked) [Metabolite M9, Hydroxy DV]			U, F				
CN(C)CC(c1ccc(O[C@@H]2O[C@H](C(=O)O)[C@@H](O)[C@H](O)[C@H]2O)cc1)C1(O)CCCCC1 (some centres unmarked) [Metabolite M7, O-desmethylvenlafaxine O-glucuronide]			P, U, F	P, U, F	84.1% and 83.5% and 83.9% and 86.8%		% of the radioactivity in plasma ([3]; female rats, 1 hour post-dose): 86.6%; % of the radioactivity in plasma ([3]; male rats, 1 hour post-dose): 88.7%; % of the radioactivity in plasma ([3]; male rats, 4 hours post-dose): 93.6%; % of the radioactivity detected in urine ([4]; all urine samples at each time point): approximately 75%; Compounds Detected by Radiochromatography in urine (Mean ± S.D., n = 3), percent of total peaks ([4]; 0-8 hr, female): 74.0 ± 3.3%; Compounds Detected by Radiochromatography in urine (Mean ± S.D., n = 3), percent of total peaks ([4]; 0-8 hr, male): 76.5 ± 1.9%; Compounds Detected by Radiochromatography in urine (Mean ± S.D., n = 3), percent of total peaks ([4]; 8-24 hr, male): 77.2 ± 1.2%; % of the radioactivity detected in plasma ([6]; 1 hour post-dose): 77.5%; % of the radioactivity detected in plasma ([6]; 4 hours post-dose): 96.4%
C[N+](C)([O-])CC(c1ccc(O)cc1)C1(O)CCCCC1 (centres unmarked) [N-oxide DV]	7.3% and 15.7% and 5.7% and 0.0%	approximately 7%	P, U, F	P, U, F^b		7%	Compounds Detected by Radiochromatography in feces, percent of total peaks, Mean ± S.D. ([8]; listed as N-Oxide): 7.1 ± 1.3%; Compounds Detected by Radiochromatography in feces, percent of total peaks, individual rats ([8]; listed as N-Oxide): 6.0% and 6.7% and 8.5%; Compounds Detected by Radiochromatography in feces, percent of total peaks, Mean ± S.D. ([1]; listed as N-Oxide): 7.2 ± 6.1%
CNCC(c1ccc(O[C@@H]2O[C@H](C(=O)O)[C@@H](O)[C@H](O)[C@H]2O)cc1)C1(O)CCCCC1 (some centres unmarked) [Metabolite M13, N,O-didesmethylvenlafaxine O-glucuronide]			P, U	P, U	3.3% and 3.5% and 4.3% and 3.6%		

Further lines, with some results ahead:

Compounds Detected by Radiochromatography in feces, percent of total peaks, individual dogs [1]	Compounds Detected by Radiochromatography in feces, percent of total peaks, Mean ± S.D. [1]	Matrix (metabolite observed by LC/MS) [2]	Matrix (metabolite observed by LC/MS) [5]	Compounds Detected by Radiochromatography in urine, percent of total peaks, individual dogs [7]	Compounds Detected by Radiochromatography in feces, percent of total peaks, Mean ± S.D. [8]	SMILES	other results
4.4% and 16.1% and 0.0% (2×)	5.1 ± 7.0%	U, F				NCC(c1ccc(O)cc1)C1(O)CCCCC1 (centres unmarked) [Metabolite M14, N,N,O-tridesmethylvenlafaxine]	
9.8% and 17.7% and 8.6% and 11.2%		P, U, F	P, U, F		34% and 33.6 ± 0.9%	CNCC(c1ccc(O)cc1)C1(O)CCCCC1 (centres unmarked) [Metabolite M10, N,O-didesmethylvenlafaxine]	Compounds Detected by Radiochromatography in feces, percent of total peaks, individual rats [8]: 34.5% and 32.6% and 33.6%

— US20080261895A1 (Wyeth, priority 2006, published 2008)
